Experimental data published in BindingDB's records for doi:10.1021/np9704922 (University of Naples Federico II, 1998).

Experiment: Inhibition of human synovial secretory PLA2

IC50: 3.8 µM
SMILES: CC1(C)CCC[C@]2(C)[C@H]3CC[C@@H]4[C@H](O)O[C@@H](C5=CC(=O)OC5O)C[C@H]4[C@]3(C)CC[C@@H]12 (stereo partly specified) [Petrosaspongiolide P]
